The target of this test is FP receptor (Homo sapiens (Human), UniProt P43088). Briefly: In vitro test of inhibition of human FP receptor activity (PGF2α-induced calcium flux in FP-expressing CHEM1 cells). The format is cell-based. As to conditions: PGF2α 2 nM, some mean values of multiple determinations. The essentials:
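FP antagonism in FP-expressing CHEM1 cells loaded with Fluo-8. Compound preincubated 10 min at 37° C, then receptor stimulated with 2 nM (final) PGF2α in calcium-free Tyrode with 2 mM CaCl2.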
(In general: Calcium assays in cells follow changes in intracellular calcium, usually with a dye or a luminescent sensor.)
FP receptor, sequence (P43088 whole entry): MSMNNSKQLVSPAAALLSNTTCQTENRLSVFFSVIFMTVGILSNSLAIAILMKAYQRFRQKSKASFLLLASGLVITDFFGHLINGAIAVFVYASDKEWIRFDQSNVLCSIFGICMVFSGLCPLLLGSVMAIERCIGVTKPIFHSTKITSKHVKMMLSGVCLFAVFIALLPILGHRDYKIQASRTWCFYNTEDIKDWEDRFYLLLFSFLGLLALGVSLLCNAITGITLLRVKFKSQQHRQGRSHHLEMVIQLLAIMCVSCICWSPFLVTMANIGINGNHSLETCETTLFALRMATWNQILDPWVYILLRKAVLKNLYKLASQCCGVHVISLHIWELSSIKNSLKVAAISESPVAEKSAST
As for `Cc1ccccc1C(CCC(=O)O)CNC(=O)c1c(C)c(N2CCCC(F)(F)C2)nc2ccc(Br)cc12` (single isomer, unassigned; (-)) [Example 230, (−)-5-({[6-Bromo-2-(3,3-difluoropiperidin-1-yl)-3-methylquinolin-4-yl]carbonyl}amino)-4-(2-methylphenyl)pentanoic acid], the IC50 amounted to 12 nM.

For the compound `Cc1ccccc1C(CCC(=O)O)CNC(=O)c1c(C)c(N2CCCC2)nc2ccc(Br)cc12` (single isomer, unassigned; (-)) [Example 234, (−)-5-({[6-Bromo-3-methyl-2-(pyrrolidin-1-yl)quinolin-4-yl]carbonyl}amino)-4-(2-methylphenyl)pentanoic acid], the half-inhibitory concentration (IC50) came out at 8.9 nM.

As to `COc1ccccc1C(CCC(=O)O)CNC(=O)c1c(C)c(N2CCCCC2)nc2ccc(Br)cc12` (single isomer, unassigned; (-)) [Example 236, (−)-5-({[6-Bromo-3-methyl-2-(piperidin-1-yl)quinolin-4-yl]carbonyl}amino)-4-(2-methoxyphenyl)pentanoic acid], the IC50 amounted to 11 nM.

For `COc1ccccc1C(CCC(=O)O)CNC(=O)c1c(C)c(N2CCCC2)nc2ccc(Br)cc12` (single isomer, unassigned; (-)) [Example 238, (−)-5-({[6-Bromo-3-methyl-2-(pyrrolidin-1-yl)quinolin-4-yl]carbonyl}amino)-4-(2-methoxyphenyl)pentanoic acid], the IC50 turned out to be 44 nM.

As for `COc1ccccc1C(CCC(=O)O)CNC(=O)c1c(C)c(N2CCCCCC2)nc2ccc(Br)cc12` (single isomer, unassigned; (-)) [Example 240, (−)-5-({[2-(Azepan-1-yl)-6-bromo-3-methylquinolin-4-yl]carbonyl}amino)-4-(2-methoxyphenyl)pentanoic acid], the IC50 came out at 16 nM.

Turning to `Cc1c(N2CCCC2)nc2ccc(Br)cc2c1C(=O)NCC(CCC(=O)O)c1c(F)cccc1F` (single isomer, unassigned; (-)) [Example 249, (−)-5-({[6-Bromo-3-methyl-2-(pyrrolidin-1-yl)quinolin-4-yl]carbonyl}amino)-4-(2,6-difluorophenyl)pentanoic acid], the IC50 was found to be 9.4 nM.

Consider `Cc1c(N2CCCC(F)(F)C2)nc2ccc(Br)cc2c1C(=O)NCC(CCC(=O)O)c1c(F)cccc1F` (single isomer, unassigned; (-)) [Example 252, (−)-5-({[6-Bromo-2-(3,3-difluoropiperidin-1-yl)-3-methylquinolin-4-yl]carbonyl}amino)-4-(2,6-difluorophenyl)pentanoic acid], for which the half-inhibitory concentration (IC50) worked out at 9.4 nM.

Take `Cc1c(N2CCCCC2)nc2ccc(Br)cc2c1C(=O)NCC(CCC(=O)O)c1cc(F)ccc1F` (single isomer, unassigned; (-)) [Example 256, (−)-5-({[6-Bromo-3-methyl-2-(piperidin-1-yl)quinolin-4-yl]carbonyl}amino)-4-(2,5-difluorophenyl)pentanoic acid]: the concentration for half-maximal inhibition (IC50) was found to be 8.4 nM.

On to `Cc1c(N2CCCC2)nc2ccc(Br)cc2c1C(=O)NCC(CCC(=O)O)c1cc(F)ccc1F` (single isomer, unassigned; (-)) [Example 260, (−)-5-({[6-Bromo-3-methyl-2-(pyrrolidin-1-yl)quinolin-4-yl]carbonyl}amino)-4-(2,5-difluorophenyl)pentanoic acid], for which the IC50 turned out to be 29 nM.

As to `Cc1c(N2CCCC(F)(F)C2)nc2ccc(Br)cc2c1C(=O)NCC(CCC(=O)O)c1cc(F)ccc1F` (single isomer, unassigned; (-)) [Example 262, (−)-5-({[6-Bromo-2-(3,3-difluoropiperidin-1-yl)-3-methylquinolin-4-yl]carbonyl}amino)-4-(2,5-difluorophenyl)pentanoic acid], the half-maximal inhibitory concentration (IC50) was determined as 18 nM.

Take `Cc1c(N2CCCC(F)(F)C2)nc2ccc(Br)cc2c1C(=O)NCC(CCC(=O)O)c1c(Cl)cccc1Cl` (single isomer, unassigned; (-)) [Example 265, (−)-5-({[6-Bromo-2-(3,3-difluoropiperidin-1-yl)-3-methylquinolin-4-yl]carbonyl}amino)-4-(2,6-dichlorophenyl)pentanoic acid]: the IC50 turned out to be 13 nM.

As to `[2H]C1([2H])N(c2nc3ccc(Br)cc3c(C(=O)NCC(CCC(=O)O)c3ccccc3C(F)(F)F)c2C)C([2H])([2H])C([2H])([2H])C([2H])([2H])C1([2H])[2H]` (single isomer, unassigned; (-)) [Example 269, (−)-5-[({6-Bromo-3-methyl-2-[(^2H10)piperidin-1-yl]quinolin-4-yl}carbonyl)amino]-4-[2-(trifluoromethyl)phenyl]pentanoic acid], the concentration for half-maximal inhibition (IC50) was 2.8 nM.

In the case of `[2H]C1([2H])N(c2nc3ccc(Br)cc3c(C(=O)NCC(CCC(=O)O)c3ccccc3C(F)(F)F)c2C)C([2H])([2H])C([2H])([2H])C1([2H])[2H]` (single isomer, unassigned; (-)) [Example 277, (−)-5-[({6-Bromo-3-methyl-2-[(^2H8)pyrrolidin-1-yl]quinolin-4-yl}carbonyl)amino]-4-[2-(trifluoromethyl)phenyl]pentanoic acid], the IC50 is 34 nM.

`Cc1c(N2CCCC2)nc2ccc(Br)cc2c1C(=O)NCC(CCC(=O)O)c1ccccc1C(F)(F)F` (single isomer, unassigned; (-)) [Example 280, (−)-5-[({6-Bromo-3-methyl-2-[(^2H8)pyrrolidin-1-yl]quinolin-4-yl}carbonyl)amino]-4-[2-(trifluoromethyl)phenyl]pentanoic acid]: the IC50 stood at 2.4 nM.

As to `Cc1c(N2CCC(O)C2)nc2ccc(Br)cc2c1C(=O)NCC(CCC(=O)O)c1cc(F)ccc1Cl` (stereo not shown) [Example 16, 5-[({6-Bromo-2-[3-hydroxypyrrolidin-1-yl]-3-methylquinolin-4-yl}carbonyl)amino]-4-(2-chloro-5-fluorophenyl)pentanoic acid], the half-maximal inhibitory concentration (IC50) was 290 nM.

As to `Cc1c(N2CCCC(C)C2)nc2ccc(Br)cc2c1C(=O)NCC(CCC(=O)O)c1cc(F)ccc1Cl` (stereo not shown) [Example 17, 5-[({6-Bromo-3-methyl-2-[3-methylpiperidin-1-yl]quinolin-4-yl}carbonyl)amino]-4-(2-chloro-5-fluorophenyl)pentanoic acid], the 50% inhibitory concentration (IC50) was 4.1 nM.

Consider `COC1CCCN(c2nc3ccc(Br)cc3c(C(=O)NCC(CCC(=O)O)c3cc(F)ccc3Cl)c2C)C1` (stereo not shown) [Example 19, 5-[({6-Bromo-2-[3-methoxypiperidin-1-yl]-3-methylquinolin-4-yl}carbonyl)amino]-4-(2-chloro-5-fluorophenyl)pentanoic acid], for which the IC50 was determined as 130 nM.

For `Cc1c(N2CCOC(CO)C2)nc2ccc(Br)cc2c1C(=O)NCC(CCC(=O)O)c1cc(F)ccc1Cl` (stereo not shown) [Example 20, 5-[({6-Bromo-2-[2-(hydroxymethyl)morpholin-4-yl]-3-methylquinolin-4-yl}carbonyl)amino]-4-(2-chloro-5-fluorophenyl)pentanoic acid], the half-inhibitory concentration (IC50) stood at 490 nM.

As for `Cc1c(N2CCCC(CO)C2)nc2ccc(Br)cc2c1C(=O)NCC(CCC(=O)O)c1cc(F)ccc1Cl` (stereo not shown) [Example 21, 5-[({6-Bromo-2-[3-(hydroxymethyl)piperidin-1-yl]-3-methylquinolin-4-yl}carbonyl)amino]-4-(2-chloro-5-fluorophenyl)pentanoic acid], the IC50 came out at 230 nM.

As for `Cc1c(N2CCC(C)C2)nc2ccc(Br)cc2c1C(=O)NCC(CCC(=O)O)c1ccccc1Cl` (stereo not shown) [Example 36, 5-[({6-Bromo-3-methyl-2-[3-methylpyrrolidin-1-yl]quinolin-4-yl}carbonyl)amino]-4-(2-chlorophenyl)pentanoic acid], the IC50 is 22 nM.

Turning to `COC1CCN(c2nc3ccc(Br)cc3c(C(=O)NCC(CCC(=O)O)c3ccccc3Cl)c2C)C1` (stereo not shown) [Example 41, 5-[({6-Bromo-2-[3-methoxypyrrolidin-1-yl]-3-methylquinolin-4-yl}carbonyl)amino]-4-(2-chlorophenyl)pentanoic acid], the 50% inhibitory concentration (IC50) is 430 nM.

Consider `Cc1c(N2CCCC(C)C2)nc2ccc(Br)cc2c1C(=O)NCC(CCC(=O)O)c1ccccc1Cl` (stereo not shown) [Example 45, 5-[({6-Bromo-3-methyl-2-[3-methylpiperidin-1-yl]quinolin-4-yl}carbonyl)amino]-4-(2-chlorophenyl)pentanoic acid], for which the IC50 stood at 4.7 nM.

In the case of `Cc1c(N2CCCC(C(F)(F)F)C2)nc2ccc(Br)cc2c1C(=O)NCC(CCC(=O)O)c1ccccc1Cl` (stereo not shown) [Example 53, 5-[({6-Bromo-3-methyl-2-[3-(trifluoromethyl)piperidin-1-yl]quinolin-4-yl}carbonyl)amino]-4-(2-chlorophenyl)pentanoic acid], the half-maximal inhibitory concentration (IC50) is 5.7 nM.

On to `Cc1c(N2CCCC(O)C2)nc2ccc(Br)cc2c1C(=O)NCC(CCC(=O)O)c1ccccc1Cl` (stereo not shown) [Example 55, 5-[({6-Bromo-2-[3-hydroxypiperidin-1-yl]-3-methylquinolin-4-yl}carbonyl)amino]-4-(2-chlorophenyl)pentanoic acid], for which the half-inhibitory concentration (IC50) was found to be 110 nM.

With `Cc1c(N2CCCC(N)C2)nc2ccc(Br)cc2c1C(=O)NCC(CCC(=O)O)c1ccccc1Cl` (stereo not shown) [Example 56, 5-[({2-[3-Aminopiperidin-1-yl]-6-bromo-3-methylquinolin-4-yl}carbonyl)amino]-4-(2-chlorophenyl)pentanoic acid], the 50% inhibitory concentration (IC50) was 330 nM.

Consider `Cc1c(N2CCCC(C)(O)C2)nc2ccc(Br)cc2c1C(=O)NCC(CCC(=O)O)c1ccccc1Cl` (stereo not shown) [Example 62, 5-[({6-Bromo-2-[3-hydroxy-3-methylpiperidin-1-yl]-3-methylquinolin-4-yl}carbonyl)amino]-4-(2-chlorophenyl)pentanoic acid], for which the half-maximal inhibitory concentration (IC50) worked out at 110 nM.

In the case of `Cc1c(N2CC(C)CC(C)C2)nc2ccc(Br)cc2c1C(=O)NCC(CCC(=O)O)c1ccccc1Cl` (stereo not shown) [Example 63, 5-[({6-Bromo-2-[3,5-dimethylpiperidin-1-yl]-3-methylquinolin-4-yl}carbonyl)amino]-4-(2-chlorophenyl)pentanoic acid], the IC50 is 7.3 nM.

Turning to `Cc1c(N2CCCC(C(F)F)C2)nc2ccc(Br)cc2c1C(=O)NCC(CCC(=O)O)c1ccccc1Cl` (stereo not shown) [Example 64, 5-[({6-Bromo-2-[3-(difluoromethyl)piperidin-1-yl]-3-methylquinolin-4-yl}carbonyl)amino]-4-(2-chlorophenyl)pentanoic acid], the concentration for half-maximal inhibition (IC50) amounted to 9.8 nM.

The term IC50 denotes the midpoint of a concentration-inhibition curve.

The values above are taken from patent US11149018B2, “Substituted N-arylethyl-2-aminoquinoline-4-carboxamides and use thereof” (Bayer Aktiengesellschaft, priority 2017, dated 2021).
